Assays:
[1] = system: writhing syndrome induced by acetic acid; test: Acetic Acid Induced Writhing (analgesic activity); assay type: in vivo, male ddY strain mice; details: Dose: 32 mg/kg, orally 60 minutes before 0.6% acetic acid i.p.; observed from 3 to 13 minutes; mice
Procedure: (1) Acetic Acid Induced Writhing
Ten male ddY strain mice were used per group. To estimate the frequency of writhing syndrome, the animals were observed from 3 to 13 minutes after an intraperitoneal injection of 0.2 ml/10 g of 0.6% acetic acid. The drugs were given orally 60 minutes before acetic acid. The frequency of writhing syndrome in the treated animals was compared with that in the nontreated control animals.

[2] = system: Paw edema induced by carrageenin; test: Carrageenin Foot Edema (antiinflammatory activity); assay type: in vivo, male Sprague-Dawley rats; details: Dose: 32 mg/kg, orally 60 minutes before phlogogen; edema volume 3 hours after 1% carrageenin; rats
Procedure: (1) Carrageenin Foot Edema
Five male Sprague-Dawley rats weighing about 200 g were used per group.
Paw edema was induced by subplantar injection of 1% carrageenin (0.1 ml/rat) into the right hind paw. The test drug was suspended in 0.5% methylcellulose and administered orally 60 minutes before phlogogen. Paw volume was measured with plethysmometer (Ugo Bazil Co., Ltd.) by water displacement immersing the paw to the lateral malleolus. The difference of paw volume before and 3 hours after the phlogogen was designated as edema volume.
The data were analyzed statistically by student's t-test.

SMILES | Inhibition (%) of acetic acid induced writhing [1] | Inhibition (%) of carrageenin foot edema [2]
O=C(Nc1ccc(Cl)nc1)NN1CC=CCC1 [Compound F, N-[[(2-Chloropyridin-5-yl)carbamoyl]amino]-1,2,3,6-tetrahydropyridine] | 75.1% | 49.9%
O=C(Nc1ccncn1)NN1CC=CCC1 [Compound D, N-[(4-Pyrimidinylcarbamoyl)amino]-1,2,3,6-tetrahydropyridine] | 68.5% | 48.0%
O=C(NN1CC=CCC1)NN1CCCC1 [Compound G, N-[(1-Pyrrolidinylcarbamoyl)amino]-1,2,3,6-tetrahydropyridine] | 84.7% | –
O=C(NN1CC=CCC1)NN1CC=CCC1 [Compound H, N,N'-[Bis-(1,2,3,6-tetrahydropyridin-1-yl)]urea] | 82.0% | –
O=C(Nc1cnccn1)NN1CC=CCC1 [Compound E, N-(Pyrazinylcarbamoylamino)-1,2,3,6-tetrahydropyridine] | – | 54.7%
O=C(Nc1ccccn1)NN1CC=CCC1 [Compound C, N-[(2-Pyridylcarbamoyl)amino]-1,2,3,6-tetrahydropyridine] | – | 50.9%
O=C(Nc1cccnc1)NN1CC=CCC1 [Compound B, N-[(3-Pyridylcarbamoyl)amino]-1,2,3,6-tetrahydropyridine] | 95.5% | 45.9%
O=C(Nc1ccncc1)NN1CC=CCC1 [Compound A, N-[(4-Pyridylcarbamoyl)amino]-1,2,3,6-tetrahydropyridine] | 73.4% | 41.4%
